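Cultured in 96-well plates, cells were exposed to test compound for 48 hours across five concentrations. Here, GI50 denotes the concentration required for 50% inhibition of growth.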 The source made the active and inactive calls. Cut-off read from the data, not from the text of the source: active = GI50 up to about 1.1 µM and inactive = higher. Non-standard residues stand in square brackets, D forms with d. Residues, ends and D or L forms follow the SMILES beside them. β3hI = CC[CH](C)[CH](N)CC(=O)O
Legend:
Assay in all cases: NCI tumour cell line growth inhibition, 48 h
[1] = system: A498
[2] = system: A549
[3] = system: ACHN
[4] = system: HOP-92
[5] = system: IGROV-1
[6] = system: M14
[7] = system: NCI-H23
[8] = system: NCI-H460
[9] = system: RPMI-8226
[10] = system: SF-268
[11] = system: SF-295
[12] = system: SK-MEL-2
[13] = system: SN12C
[14] = system: TK-10
[15] = system: U-251
[16] = system: UACC-62
[17] = system: COLO 205
[18] = system: LOX IMVI
[19] = system: NCI/ADR-RES
[20] = system: CAKI-1

N/N=C1\C(=O)N(c2ccc(Cl)c(Cl)c2)C(=O)C1C(=O)Nc1ccc(Cl)c(Cl)c1 (stereo not drawn)
GI50 [1]: 44.3 µM (inactive)
GI50 [2]: 42.9 µM (inactive)
GI50 [3]: 43.2 µM (inactive)
GI50 [4]: 48.1 µM (inactive)
GI50 [5]: 73.8 µM (inactive)
GI50 [6]: > 100 µM (inactive)
GI50 [7]: 40.6 µM (inactive)
GI50 [8]: 54.5 µM (inactive)
GI50 [9]: > 100 µM (inactive)
GI50 [10]: 55.1 µM (inactive)
GI50 [11]: 31.9 µM (inactive)
GI50 [12]: 50.4 µM (inactive)
GI50 [13]: 51.5 µM (inactive)
GI50 [14]: > 100 µM (inactive)
GI50 [15]: 31.1 µM (inactive)
GI50 [16]: 51.4 µM (inactive)

CCOC(=O)C(NC(=O)Nc1ccccc1)(Nc1cccc(Cl)c1)C(F)(F)F (stereo not drawn)
GI50 [1]: > 66.4 µM (inactive)
GI50 [2]: > 100 µM (inactive)
GI50 [3]: > 100 µM (inactive)
GI50 [17]: > 100 µM (inactive)
GI50 [4]: 39.8 µM (inactive)
GI50 [5]: > 100 µM (inactive)
GI50 [18]: > 100 µM (inactive)
GI50 [6]: > 100 µM (inactive)
GI50 [7]: > 100 µM (inactive)
GI50 [8]: > 100 µM (inactive)
GI50 [19]: > 100 µM (inactive)
GI50 [9]: > 100 µM (inactive)
GI50 [10]: > 100 µM (inactive)
GI50 [12]: > 100 µM (inactive)
GI50 [13]: > 100 µM (inactive)
GI50 [14]: > 100 µM (inactive)
GI50 [15]: > 100 µM (inactive)
GI50 [16]: > 100 µM (inactive)

CCCCCCCCCCCC[N+](CCCCCCCCCCCC)=C1SCCS1
GI50 [1]: 15.7 µM (inactive)
GI50 [2]: 4.78 µM (inactive)
GI50 [3]: 12.5 µM (inactive)
GI50 [20]: 12.8 µM (inactive)
GI50 [17]: 8.04 µM (inactive)
GI50 [4]: 10.8 µM (inactive)
GI50 [5]: 10.5 µM (inactive)
GI50 [18]: 1.97 µM (inactive)
GI50 [6]: 10.5 µM (inactive)
GI50 [7]: 2.04 µM (inactive)
GI50 [8]: 7.28 µM (inactive)
GI50 [9]: 1.49 µM (inactive)
GI50 [10]: 8.04 µM (inactive)
GI50 [11]: 3.05 µM (inactive)
GI50 [12]: 10.7 µM (inactive)
GI50 [13]: 3.92 µM (inactive)
GI50 [14]: 15.2 µM (inactive)
GI50 [15]: 3.26 µM (inactive)
GI50 [16]: 10.8 µM (inactive)

NC(=S)N/N=C1\c2ccccc2CCC1CCC1(O)CCc2ccccc2C1=O (stereo not drawn)
GI50 [2]: 36.1 µM (inactive)
GI50 [3]: 35.5 µM (inactive)
GI50 [20]: 58.3 µM (inactive)
GI50 [17]: 17.7 µM (inactive)
GI50 [5]: 37.8 µM (inactive)
GI50 [18]: 19.3 µM (inactive)
GI50 [6]: 16.4 µM (inactive)
GI50 [7]: 25.5 µM (inactive)
GI50 [8]: 16 µM (inactive)
GI50 [19]: 13.8 µM (inactive)
GI50 [9]: 24.9 µM (inactive)
GI50 [10]: 42.1 µM (inactive)
GI50 [11]: 23 µM (inactive)
GI50 [13]: 18.1 µM (inactive)
GI50 [14]: 13.6 µM (inactive)
GI50 [15]: 28.6 µM (inactive)
GI50 [16]: 17.8 µM (inactive)

CCC(C)C(CC(=O)N1CCCC1C(=O)NC(C(=O)NC(C(=O)NCC(=O)NC(CC(N)=O)C(=O)NC(C(=O)NC(C(=O)NC(CCCCN)C(N)=O)C(C)CC)C(C)CC)C(C)C)C(C)CC)NC(=O)C(N)C(C)CC (stereo not drawn) (H-I[β3hI]PIVGNIIK-NH2; configuration not given here)
GI50 [1]: > 50 µM (inactive)
GI50 [2]: > 50 µM (inactive)
GI50 [3]: > 50 µM (inactive)
GI50 [20]: > 50 µM (inactive)
GI50 [17]: > 50 µM (inactive)
GI50 [4]: > 50 µM (inactive)
GI50 [5]: > 50 µM (inactive)
GI50 [18]: > 50 µM (inactive)
GI50 [6]: > 50 µM (inactive)
GI50 [7]: > 50 µM (inactive)
GI50 [19]: > 50 µM (inactive)
GI50 [9]: > 50 µM (inactive)
GI50 [10]: > 50 µM (inactive)
GI50 [11]: > 50 µM (inactive)
GI50 [12]: > 50 µM (inactive)
GI50 [13]: > 50 µM (inactive)
GI50 [14]: > 50 µM (inactive)
GI50 [15]: > 50 µM (inactive)
GI50 [16]: > 50 µM (inactive)

CC(C)C1CN1CC(O)Cn1ccnc1[N+](=O)[O-] (stereo not drawn)
GI50 [1]: > 100 µM (inactive)
GI50 [2]: > 100 µM (inactive)
GI50 [3]: > 100 µM (inactive)
GI50 [20]: > 100 µM (inactive)
GI50 [17]: > 100 µM (inactive)
GI50 [5]: > 100 µM (inactive)
GI50 [6]: > 100 µM (inactive)
GI50 [7]: > 100 µM (inactive)
GI50 [8]: > 100 µM (inactive)
GI50 [19]: > 100 µM (inactive)
GI50 [10]: > 100 µM (inactive)
GI50 [11]: > 100 µM (inactive)
GI50 [12]: > 100 µM (inactive)
GI50 [13]: > 100 µM (inactive)
GI50 [14]: > 100 µM (inactive)
GI50 [15]: > 100 µM (inactive)
GI50 [16]: > 100 µM (inactive)

CC(NC(C#N)CC12CC3CC(CC(C3)C1)C2)c1ccccc1 (stereo not drawn)
GI50 [1]: > 100 µM (inactive)
GI50 [2]: > 100 µM (inactive)
GI50 [3]: 47.6 µM (inactive)
GI50 [20]: 33.3 µM (inactive)
GI50 [17]: 38.1 µM (inactive)
GI50 [4]: 0.753 µM (active)
GI50 [5]: 32.4 µM (inactive)
GI50 [18]: 17.8 µM (inactive)
GI50 [6]: 54.8 µM (inactive)
GI50 [8]: 26.5 µM (inactive)
GI50 [19]: > 100 µM (inactive)
GI50 [9]: 15.5 µM (inactive)
GI50 [10]: 47.4 µM (inactive)
GI50 [11]: 20.6 µM (inactive)
GI50 [14]: > 100 µM (inactive)
GI50 [15]: 42.2 µM (inactive)
GI50 [16]: 84.3 µM (inactive)

From ChEMBL document CHEMBL1201862, “PubChem BioAssay data set” (2004)
